Test results as given in patent US4760180A, “N-terminally substituted dipeptide amides” (priority 1986, dated 1988).
Read-outs that look alike come from different tables or passages of the source.

Tests used:
[1] = system: phenylbenzoquinone-induced writhing in mice; assay: Writhing assay (phenylbenzoquinone); format: in vivo; settings: 30 min before phenylbenzoquinone i.p.; for Writhing Mouse Oral: screening dose 10 mg/kg p.o. (intragastric); for Writhing Mouse Subc.: screening dose 10 mg/kg s.c.
Procedure: Writhing assay. Male Charles River albino mice (CD-1/HAM/1LR) weighing between 20 and 30 grams were used. Thirty minutes after subcutaneous or intragastric administration of the test compound (0.1 ml/10 gram body weight), 0.025(w/v) phenylbenzoquinone was injected intraperitoneally (0.1 ml/10 gram body weight). Five minutes later, each mouse was placed in a large glass beaker and the number of writhes that occurred in the subsequent ten minutes is counted. A writhe consisted of dorsoflexion of the back, extension of the hindlimbs, and strong contraction of the abdominal musculature. The test compound was considered to have produced analgesia in a mouse if the number of writhes elicited by phenylbenzoquinone was equal to or less than one-half the median number of writhes recorded for the saline-treated group that day. The results were expressed as the number of mice (out of a possible ten) in which the test compound produced analgesia. […] If the initial test dose of 10 mg/kg inhibited writhing in greater than 6 of IO mice, the effect of additional doses was evaluated and an ED50 value was calculated using a maximum likelihood function.

[2] = system: opiate receptors isolated from rat brain; format: binding
Procedure: Opiate Binding Assay. The test compounds were evaluated for their ability to displace the binding of ^3 H-Naloxone to opiate receptors isolated from rat brain. Male rats [Crl CD(SD)BR] obtained from Charles River Laboratories (Portage, Mich.) were sacrificed by cervical dislocation. A purified homogenate of receptor membranes was prepared from the brains according to the method described by Chang and Cuatrecasas. (K.-J. Chang and P. Cuatrecasas. Multiple Opiate Receptors: Enkephalins And Morphine Bind To Receptors Of Different Specificity. J. Biol. Chem. 254, 2610-2618 (1979).) The brains were homogenized in 10 volumes of 0.32M sucrose and centrifuged twice at 6,000xg for 15 minutes. Following centrifugation of the supernatants at 40,000xg for 30 minutes, the pellets were resuspended in 5mM Tris-HCl and then centrifuged at 6,000xg. The supernatant was centrifuged at 40,000xg. This resuspended pellet (5mM Tris HCl) was centrifuged twice. The final pellet was resuspended in 2 volumes of 50 mM tris HCl (pH 7.4). The homogenate was assayed for protein content according to the method of Itzhaki and Gill. (R. F. Itzhaki and D. M. Gill. A Micro-Biuret Method for Estimating Proteins. Anal. Biochem. 9, 401-410 (1964).
The binding of the test compounds to the receptor membrane preparation was measured using a modification of the method of Pert and Snyder. (C. B. Pert and S. H. Snyder. Properties of Opiate-Receptor Binding in Rat Brain. Proc. Natl. Acad. Sci. 70, 2243-2247 (1973). The receptor assay was run using final concentrations of 1 nM ^3 -H-Naloxone and 0.5 mg/ml of homogenate protein.
Levorphanol (1×10^-5 M) was used as the displacer for non-specific binding. Final concentration of the test compounds was 10^-5 M. The assay was run in 0.05M tris HCl (pH 7.4). Total assay volume was 1.0 ml.
Samples were incubated at 25° C. for 60 min., filtered over Whatman GF/C glass fiber filters and rinsed twice with 4 ml washes of ice-cold buffer. The filters were air-dried at 50° C. for 30 minutes. After drying, 10 ml of PCS was added to the vial and the radioactivity determined using a tracor analytic Mark III liquid scintillation counter with a counting efficiency of 48.
The IC50 value, the concentration of the test compounds which inhibited ^3 H-Naloxone specific binding to the opiate receptor by 50, were obtained from log-logit plots of concentration-response curves.

rat = settings: injected directly into the brain of the rat; Belluzi et al., Nature 260, 625 (1976); cited from earlier work
[3] = inhibition of 1 nM 3H-Naloxone specific binding, rat brain membranes, screening concentration 10^-5 M

## COc1ccc(C[C@H](N)C(=O)N[C@H](C)C(=O)NCCCc2ccccc2)cc1.Cl [Example 9, 0-methyl-L-tyrosyl-N-(3-phenylpropyl)-D-alaninamide, monohydrochloride]
[1]
  Writhing Mouse Oral: Active
  Writhing Mouse Subc.: Active
[2]
  Opiate Binding IC50: Inactive

## CNC(Cc1c(C)cc(OCc2ccccc2)cc1C)C(=O)N[C@H](C)C(=O)NCCCc1ccccc1.Cl (mixture of isomers) [Example 12, N,2,6-trimethyl-0-(phenylmethyl)-DL-tyrosyl-N-(3-phenylpropyl)-D-alaninamide, monohydrochloride]
[1]
  Writhing Mouse Oral: Active
  Writhing Mouse Subc.: Active
[2]; [3]
  IC50: 3600 nM

## Cc1cc(C)c(C[C@H](N)C(=O)N[C@H](C)C(=O)NCCCc2ccccc2)c(C)c1.Cl [Example 25, 2,4,6-trimethylphenylalanyl-N-(3-phenylpropyl)-D-alaninamide, monohydrochloride]
[1]
  Writhing Mouse Oral: Inactive
  Writhing Mouse Subc.: Active
[2]; [3]
  IC50: 2000 nM

## CN[C@@H](Cc1c(C)cc(O)cc1C)C(=O)N[C@H](C)C(=O)NCCCc1ccccc1.CN[C@@H](Cc1c(C)cc(O)cc1C)C(=O)N[C@H](C)C(=O)NCCCc1ccccc1.CN[C@@H](Cc1c(C)cc(O)cc1C)C(=O)N[C@H](C)C(=O)NCCCc1ccccc1.CN[C@@H](Cc1c(C)cc(O)cc1C)C(=O)N[C@H](C)C(=O)NCCCc1ccccc1.Cl.Cl.Cl.Cl.Cl [Example 14, N,2,6-trimethyltyrosyl-N-(3-phenylpropyl)-D-alaninamide, hydrochloride (4:5)]
[1]
  Writhing Mouse Oral: Inactive
  Writhing Mouse Subc.: Active
[2]; [3]
  IC50: 140 nM

## COc1cc(C)c(C[C@H](N)C(=O)N[C@H](C)C(=O)NCCCc2ccccc2)c(C)c1 [Example 4, 0,2,6-trimethyltyrosyl-N-(3-phenylpropyl)-D-alaninamide]
[1]
  Writhing Mouse Oral: Active
  Writhing Mouse Subc.: Active
[2]; [3]
  IC50: 75 nM

## Cc1cc(OCc2ccccc2)cc(C)c1C[C@@H](N)C(=O)N[C@H](C)C(=O)NCCCc1ccccc1.Cl [Example 28, 2,6-dimethyl-O-(phenylmethyl)-D-tyrosyl-N-(3-phenylpropyl)-D-alaninamide, hydrochloride]
[1]
  Writhing Mouse Oral: Active
  Writhing Mouse Subc.: Active
[2]; [3]
  IC50: 22 nM

## 2,6,dichlorotyrosyl-N-(3-phenylpropyl)-D-alaninamide, monohydrochloride [Example 23]
[1]
  Writhing Mouse Oral: Active
  Writhing Mouse Subc.: Active
[2]; [3]
  IC50: 7.6 nM

## Cc1cc(O)cc(C)c1CC(N)C(=O)N[C@H](C)C(=O)N(C)CCCc1ccccc1.Cl (mixture of isomers) [Example 16, 2,6-dimethyl-DL-tyrosyl-N-methyl-N-(3-phenylpropyl)-D-alaninamide, monohydrochloride]
[1]
  Writhing Mouse Oral: Inactive
  Writhing Mouse Subc.: Active
[2]; [3]
  IC50: 300 nM

## CN[C@@H](Cc1c(C)cc(O)cc1C)C(=O)N[C@H](C)C(=O)NCCCc1ccccc1.Cl [Example 13, N,2,6-trimethyltyrosyl-N-(3-phenylpropyl)-D-alaninamide, monohydrochloride]
[1]
  Writhing Mouse Oral: Inactive
  Writhing Mouse Subc.: Active
[2]; inhibition of 1 nM 3H-Naloxone specific binding, rat brain membranes, screening concentration 10^-5 M, monohydrochloride
  IC50: 1800 nM

## COc1cc(C)c(C[C@H](N)C(=O)N[C@H](C)C(=O)NCCCc2ccccc2)c(C)c1 [Example 3, 0,2,6-trimethyltyrosyl-N-(3-phenylpropyl)-D-alaninamide]
[1]
  Writhing Mouse Oral: Active
  Writhing Mouse Subc.: Active
[2]; [3]
  IC50: 420 nM

## Cc1cc(OCc2ccccc2)cc(C)c1C[C@H](N)C(=O)N[C@H](C)C(=O)NCCCc1ccccc1.Cl [Example 27, 2,6-dimethyl-O-(phenylmethyl)-L-tyrosyl-N-(3-phenylpropyl)-D-alaninamide, monohydrochloride]
[1]
  Writhing Mouse Oral: Active
  Writhing Mouse Subc.: Active
[2]; [3]
  IC50: 360 nM

## Cc1cc(OC(C)C)cc(C)c1C[C@H](N)C(=O)N[C@H](C)C(=O)NCCCc1ccccc1.Cc1cc(OC(C)C)cc(C)c1C[C@H](N)C(=O)N[C@H](C)C(=O)NCCCc1ccccc1.Cc1cc(OC(C)C)cc(C)c1C[C@H](N)C(=O)N[C@H](C)C(=O)NCCCc1ccccc1.Cc1cc(OC(C)C)cc(C)c1C[C@H](N)C(=O)N[C@H](C)C(=O)NCCCc1ccccc1.Cl.Cl.Cl.Cl.Cl [Example 6, 2,6,dimethyl-0-(1-methylethyl)tyrosyl-N-(3-phenylpropyl)-D-alaninamide, hydrochloride (4:5)]
[1]
  Writhing Mouse Oral: Inactive
  Writhing Mouse Subc.: Inactive
[2]; read-out: Opiate Binding IC50
  IC50: 47 nM

## COc1cc(C)c(CC(N)C(=O)N[C@H](C)C(=O)NCCCc2ccccc2)c(C)c1.Cl (mixture of isomers) [Example 2, 0,2,6-trimethyl-DL-tyrosyl-N-(3-phenylpropyl)-D-alaninamide, monohydrochloride]
[1]
  Writhing Mouse Oral: Active
  Writhing Mouse Subc.: Active
[2]; [3]
  IC50: 290 nM

## 0-ethyl-2,6-dimethyl-DL-tyrosyl-N-(3-phenylpropyl)-D-alaninamide, acetate (salt), hydrochloride (4:3:5; [Example 5]
[1]
  Writhing Mouse Oral: Inactive
  Writhing Mouse Subc.: Active
[2]; read-out: Opiate Binding IC50
  IC50: 130 nM

## Cc1cc(O)cc(C)c1CC(N)C(=O)N(C)[C@H](C)C(=O)NCCCc1ccccc1.Cl (mixture of isomers) [Example 15, 2,6-dimethyl-DL-tyrosyl-Nα-methyl-N-(3-phenylpropyl)-D-alaninamide, monohydrochloride]
[1]
  Writhing Mouse Oral: Active
  Writhing Mouse Subc.: Active
[2]; [3]
  IC50: 0.6 nM

## CN[C@@H](Cc1c(C)cc(OC)cc1C)C(=O)N[C@H](C)C(=O)NCCCc1ccccc1.Cl [Example 11, N,0,2,6,-tetramethyltyrosyl-N-(3-phenylpropyl)-D-alaninamide, monohydrochloride]
[1]
  Writhing Mouse Oral: Active
  Writhing Mouse Subc.: Active
[2]; [3]
  IC50: 610 nM

## methionine enkephalin
rat
  analgesic activity: weak, fleeting analgesic activity
